Test system: plants
Assay: Test D pre-emergence, other plants of Tables D1 and D3
Format: in vivo
Conditions: 20 DAA; for damage to plant (100=total damage to plant; 0=no damage to plant), BIDPI / damage to plant (100=total damage to plant; 0=no damage to plant), BRAPL / damage to plant (100=total damage to plant; 0=no damage to plant), CYPES / damage to plant (100=total damage to plant; 0=no damage to plant), EPHHL / damage to plant (100=total damage to plant; 0=no damage to plant), GLXMA / damage to plant (100=total damage to plant; 0=no damage to plant), IPOHE / damage to plant (100=total damage to plant; 0=no damage to plant), SORVU: preemergent; for CHEAL damage rating / GALAP damage rating / KCHSC damage rating / LOLPE damage rating / POAAN damage rating / STEME damage rating / VERPE damage rating: pre-emergence, 100=total damage, 0=no damage
Procedure, shortened: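 Seeds treated with herbicide safener; sown in soil; glasshouse, 16 h light, 65% humidity. Sprayed day 1 (pre) or ~day 12 (post). Spray in 0.2% v/v adjuvant. Scored 0–100 damage: 20 DAA pre, 15 d post.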

CN1CC(c2cc(C(F)(F)F)n(C)n2)C(C(=O)Nc2cccc(F)n2)C1=O (racemic) [Compound 24]
80: damage to plant (100=total damage to plant; 0=no damage to plant), BRAPL (rate 130) | damage to plant (100=total damage to plant; 0=no damage to plant), BRAPL (rate 250)
40: CHEAL damage rating (Rates 250) | POAAN damage rating (Rates 500)
60: VERPE damage rating (Rates 500)
90: damage to plant (100=total damage to plant; 0=no damage to plant), BRAPL (rate 500)
70: STEME damage rating (Rates 500)
0: damage to plant (100=total damage to plant; 0=no damage to plant), BIDPI (rate 15) | damage to plant (100=total damage to plant; 0=no damage to plant), BIDPI (rate 30) | damage to plant (100=total damage to plant; 0=no damage to plant), BIDPI (rate 60) | damage to plant (100=total damage to plant; 0=no damage to plant), BIDPI (rate 130) | damage to plant (100=total damage to plant; 0=no damage to plant), BIDPI (rate 250) | damage to plant (100=total damage to plant; 0=no damage to plant), BIDPI (rate 500) | damage to plant (100=total damage to plant; 0=no damage to plant), BRAPL (rate 15) | CHEAL damage rating (Rates 15) | CHEAL damage rating (Rates 30) | CHEAL damage rating (Rates 60) | CHEAL damage rating (Rates 130) | damage to plant (100=total damage to plant; 0=no damage to plant), CYPES (rate 15) | damage to plant (100=total damage to plant; 0=no damage to plant), CYPES (rate 30) | damage to plant (100=total damage to plant; 0=no damage to plant), CYPES (rate 60) | damage to plant (100=total damage to plant; 0=no damage to plant), CYPES (rate 130) | damage to plant (100=total damage to plant; 0=no damage to plant), CYPES (rate 250) | damage to plant (100=total damage to plant; 0=no damage to plant), CYPES (rate 500) | damage to plant (100=total damage to plant; 0=no damage to plant), EPHHL (rate 15) | damage to plant (100=total damage to plant; 0=no damage to plant), EPHHL (rate 30) | damage to plant (100=total damage to plant; 0=no damage to plant), EPHHL (rate 60) | damage to plant (100=total damage to plant; 0=no damage to plant), EPHHL (rate 130) | damage to plant (100=total damage to plant; 0=no damage to plant), EPHHL (rate 250) | GALAP damage rating (Rates 15) | GALAP damage rating (Rates 30) | GALAP damage rating (Rates 60) | GALAP damage rating (Rates 130) | GALAP damage rating (Rates 250) | GALAP damage rating (Rates 500) | damage to plant (100=total damage to plant; 0=no damage to plant), GLXMA (rate 15) | damage to plant (100=total damage to plant; 0=no damage to plant), GLXMA (rate 30) | damage to plant (100=total damage to plant; 0=no damage to plant), GLXMA (rate 60) | damage to plant (100=total damage to plant; 0=no damage to plant), GLXMA (rate 130) | damage to plant (100=total damage to plant; 0=no damage to plant), GLXMA (rate 250) | damage to plant (100=total damage to plant; 0=no damage to plant), GLXMA (rate 500) | damage to plant (100=total damage to plant; 0=no damage to plant), IPOHE (rate 15) | damage to plant (100=total damage to plant; 0=no damage to plant), IPOHE (rate 30) | damage to plant (100=total damage to plant; 0=no damage to plant), IPOHE (rate 60) | damage to plant (100=total damage to plant; 0=no damage to plant), IPOHE (rate 130) | damage to plant (100=total damage to plant; 0=no damage to plant), IPOHE (rate 250) | damage to plant (100=total damage to plant; 0=no damage to plant), IPOHE (rate 500) | KCHSC damage rating (Rates 15) | KCHSC damage rating (Rates 30) | KCHSC damage rating (Rates 60) | KCHSC damage rating (Rates 130) | KCHSC damage rating (Rates 250) | LOLPE damage rating (Rates 15) | LOLPE damage rating (Rates 30) | LOLPE damage rating (Rates 60) | LOLPE damage rating (Rates 130) | LOLPE damage rating (Rates 250) | POAAN damage rating (Rates 15) | POAAN damage rating (Rates 30) | POAAN damage rating (Rates 60) | POAAN damage rating (Rates 130) | damage to plant (100=total damage to plant; 0=no damage to plant), SORVU (rate 15) | damage to plant (100=total damage to plant; 0=no damage to plant), SORVU (rate 30) | damage to plant (100=total damage to plant; 0=no damage to plant), SORVU (rate 60) | damage to plant (100=total damage to plant; 0=no damage to plant), SORVU (rate 130) | damage to plant (100=total damage to plant; 0=no damage to plant), SORVU (rate 250) | damage to plant (100=total damage to plant; 0=no damage to plant), SORVU (rate 500) | STEME damage rating (Rates 15) | STEME damage rating (Rates 30) | STEME damage rating (Rates 60) | STEME damage rating (Rates 130) | VERPE damage rating (Rates 15) | VERPE damage rating (Rates 30) | VERPE damage rating (Rates 60) | VERPE damage rating (Rates 130)
10: damage to plant (100=total damage to plant; 0=no damage to plant), EPHHL (rate 500) | KCHSC damage rating (Rates 500) | LOLPE damage rating (Rates 500) | STEME damage rating (Rates 250)
50: CHEAL damage rating (Rates 500) | VERPE damage rating (Rates 250)
30: damage to plant (100=total damage to plant; 0=no damage to plant), BRAPL (rate 60)
20: damage to plant (100=total damage to plant; 0=no damage to plant), BRAPL (rate 30) | POAAN damage rating (Rates 250)

From patent publication US20220281848A1, “PYRAZOLE-SUBSTITUTED PYRROLIDINONES AS HERBICIDES” (FMC Corporation, priority 2019, published 2022)
